# Results reported in US20210386705A1, “APPLICATION OF CHIGLITAZAR AND RELATED COMPOUNDS THEREOF” (SHENZHEN CHIPSCREEN BIOSCIENCES CO., LTD., priority 2018, published 2021).
# “And” between values parts separate entries of the source, which are not always exact repeats. Equal entries are not always repeated.
# Assays:
# PPARγ = molecular target: T1, PPARγ (Homo sapiens, UniProt P37231); test: PPAR reporter gene model in L-02 cells, PPARγ; type: cell-based; details: luciferase reporter, 24 hours drug, read-out: Half-maximal activation concentration of reporter gene AC50, PPARγ
# T1 construct: expressed in transfected cells; host or cells: human hepatocyte cell line L-02
# T1 sequence (P37231 1-505): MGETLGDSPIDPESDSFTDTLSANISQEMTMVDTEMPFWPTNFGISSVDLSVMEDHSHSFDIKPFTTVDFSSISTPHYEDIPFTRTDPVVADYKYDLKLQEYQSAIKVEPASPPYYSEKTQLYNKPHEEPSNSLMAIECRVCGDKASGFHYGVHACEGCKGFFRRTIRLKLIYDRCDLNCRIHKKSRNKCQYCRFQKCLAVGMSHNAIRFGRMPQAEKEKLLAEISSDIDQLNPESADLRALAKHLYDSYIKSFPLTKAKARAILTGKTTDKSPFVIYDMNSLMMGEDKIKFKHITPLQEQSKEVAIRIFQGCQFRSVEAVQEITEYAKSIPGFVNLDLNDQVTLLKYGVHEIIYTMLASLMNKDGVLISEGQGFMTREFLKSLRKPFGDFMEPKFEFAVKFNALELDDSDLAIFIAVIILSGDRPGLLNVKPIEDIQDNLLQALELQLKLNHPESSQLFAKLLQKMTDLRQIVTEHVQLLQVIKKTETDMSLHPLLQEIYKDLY
# T1 sequence (P19793 1-462 partner): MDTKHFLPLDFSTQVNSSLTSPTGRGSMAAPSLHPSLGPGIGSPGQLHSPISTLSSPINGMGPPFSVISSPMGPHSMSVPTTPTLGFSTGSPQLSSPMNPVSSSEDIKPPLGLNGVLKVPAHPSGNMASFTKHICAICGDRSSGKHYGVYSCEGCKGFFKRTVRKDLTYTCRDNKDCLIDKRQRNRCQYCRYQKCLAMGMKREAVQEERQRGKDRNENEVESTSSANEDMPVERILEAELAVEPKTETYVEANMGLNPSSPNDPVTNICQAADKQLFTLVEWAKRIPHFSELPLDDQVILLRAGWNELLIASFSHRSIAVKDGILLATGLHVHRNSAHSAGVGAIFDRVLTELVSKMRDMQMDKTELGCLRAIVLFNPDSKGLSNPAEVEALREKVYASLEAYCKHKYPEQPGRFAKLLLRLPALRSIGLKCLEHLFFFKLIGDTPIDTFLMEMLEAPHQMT
# Protocol: (§1) The PPAR reporter gene model comprises three subtypes of expression plasmids, RXR expression plasmid, plasmid with luciferase reporter gene, and GFP expression plasmid as an external reference. The human hepatocyte cell line L-02 cells were seeded into 96-well plates at the density of 15,000 cells/well with about 50% plating rate, followed by culturing for 24 hours at 37° C. […] The fluorescence intensity (at wavelength 485-527 nm) of green fluorescent protein (GFP) in each well was firstly detected as an internal standard by a fluorescence detector, and then 30 μL of luciferase substrates (Promega, E151A) were added to each well. After slightly shaking to mix well, the […] were detected. The relative reporter gene activation intensity was obtained by the ratio of the fluorescence detection signal of the drugs to be tested to that of the solvent control, with both the signals normalized to the internal standard GFP signal. The half-maximal activation (AC50) of the drugs to be tested was calculated with the activity at various concentrations (shown in Table 1).
# [1] = system: monocytic cell line THP-1; test: MCP-1-induced chemotaxis of THP-1 cells (Transwell); type: cell-based, human; details: MCP-1 10 ng/mL, compound 3 μmol/L
# From the text: In an in vitro model, migration of the monocytic cell line THP-1 induced by a certain concentration of chemokines (such as monocyte chemotactic protein 1, MCP-1), and accordingly such in vivo process was mimicked. Transwell technology, according to the manufacturer's instructions from Corning Inc., is considered that Traswell is a kind of a polycarbonate membrane filter as well as a permeable holder. The polycarbonate membrane divides a culture chamber into upper and lower ones, where the components of the culture medium in the lower chamber can affect the growth, differentiation and movement of the cells in upper chamber. Finally, the cell migration ability can be reflected by staining and counting the cells in the lower chamber.
# When cultured to the log phase stage, THP-1 cells were resuspended, adjusted the concentration, and seeded in 24-well plates, followed by being pretreated with the culture media containing the compound to be tested (sodium chiglitazar) or the reference compound GFT505, pioglitazone, or PPARγ single agonist rosiglitazone (all purchased from Selleck) for 24 hours. Transwells were used according to the manufacturer's instructions. The culture media containing chemokine MCP-1 were added to the lower chamber (i.e., the bottom of the 24-well plates), and the cell suspension was added to the upper chamber and cultured for 4 hours. Later, the cells cultured on the “ceiling” surface of the polycarbonate membrane were fixed and stained with crystal violet solution (FIG. 6), and then the number of cells in the lower chamber was counted (Table 3).
# PPARα = molecular target: T2, PPARα (Homo sapiens, UniProt Q07869); test: PPAR reporter gene model in L-02 cells, PPARα; type: cell-based; details: luciferase reporter, 24 hours drug, read-out: Half-maximal activation concentration of reporter gene AC50, PPARα
# T2 construct: expressed in transfected cells; host or cells: human hepatocyte cell line L-02
# T2 sequence (Q07869 1-468): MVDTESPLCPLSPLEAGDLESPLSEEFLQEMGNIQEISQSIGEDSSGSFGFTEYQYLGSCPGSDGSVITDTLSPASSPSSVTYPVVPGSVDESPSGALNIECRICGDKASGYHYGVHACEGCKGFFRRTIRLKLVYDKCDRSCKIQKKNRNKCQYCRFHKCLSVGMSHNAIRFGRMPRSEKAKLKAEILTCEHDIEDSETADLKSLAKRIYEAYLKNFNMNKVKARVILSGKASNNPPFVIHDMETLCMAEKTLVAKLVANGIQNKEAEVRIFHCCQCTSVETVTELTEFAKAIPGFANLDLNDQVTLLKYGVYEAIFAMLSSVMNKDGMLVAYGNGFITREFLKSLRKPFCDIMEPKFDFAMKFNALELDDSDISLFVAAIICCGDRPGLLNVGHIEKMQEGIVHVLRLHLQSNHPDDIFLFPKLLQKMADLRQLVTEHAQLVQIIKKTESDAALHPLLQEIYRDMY
# Protocol: as §1
# [2] = 24 hours pretreatment, 4 hours migration
smiles,measurement,setting,value
O=C(c1ccc(F)cc1)c1ccccc1N[C@@H](Cc1ccc(OCCn2c3ccccc3c3ccccc32)cc1)C(=O)[O-].[Na+] [sodium chiglitazar],AC50,PPARγ,91 nM
same,"Cell concentration in lower chamber, Mean value",[1]; [2],10012 cells/ml
same,"Cell concentration in lower chamber, single replicates",[1]; [2],10630 cells/ml and 9760 cells/ml and 9646 cells/ml
same,Inhibition of migration activity of THP-1 induced by monocyte chemokine (in words),[1]; Table 3 and FIG. 6,significantly inhibited
same,Migration rate,[1]; solvent control + MCP-1 = 100,33.12%
same,AC50,PPARα,1100 nM
